“And” between values parts separate entries of the source, which are not always exact repeats. Equal entries are not always repeated.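 Briefly, cells in 96-well plates were exposed to five compound concentrations for 48 h, and endpoints were estimated by linear interpolation. The concentration for 50% growth inhibition is given as GI50. Definition used: TGI = concentration required for complete inhibition of growth.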
What was measured:
Assay in all cases: NCI tumour cell line growth inhibition, 48 h
DLD-1 colon = tested on: DLD-1 colon
DMS 273 small cell lung = tested on: DMS 273 small cell lung
KM20L2 colon = tested on: KM20L2 colon
M19-MEL melanoma = tested on: M19-MEL melanoma
RXF-631 renal = tested on: RXF-631 renal
LXFL 529 NSCLC = tested on: LXFL 529 NSCLC
XF 498 CNS = tested on: XF 498 CNS
DMS 114 small cell lung = tested on: DMS 114 small cell lung
MDA-N = tested on: MDA-N
P388/ADR leukemia = tested on: P388/ADR leukemia
SN12K1 renal = tested on: SN12K1 renal

Row | Compound | TGI (DLD-1 colon) | TGI (DMS 273 small cell lung) | TGI (KM20L2 colon) | TGI (M19-MEL melanoma) | TGI (LXFL 529 NSCLC) | TGI (XF 498 CNS) | TGI (DMS 114 small cell lung) | TGI (MDA-N) | other results
1 | Cc1nc(-n2nc(-c3ccccc3)cc2-c2ccccc2)sc1C(=O)/C=C/c1ccccc1 | > 100 µM | > 100 µM | > 100 µM | > 100 µM | – | – | – | – | TGI (RXF-631 renal): > 100 µM
2 | O=c1cccccc1[O-].O=c1cccccc1[O-].O=c1cccccc1[O-].[Sm+3] | > 100 µM | > 100 µM | > 100 µM | – | – | – | – | – | GI50 (DLD-1 colon): 18 µM; GI50 (DMS 273 small cell lung): 11.3 µM; GI50 (KM20L2 colon): 15.4 µM
3 | Nc1ccc(C(=O)/C=C/c2ccccc2O)cc1 | > 100 µM | – | > 100 µM | > 100 µM | > 100 µM | > 100 µM | – | – | TGI (RXF-631 renal): > 100 µM
4 | O=C1CNN=C(Cn2nc(-c3ccccc3)c3ccccc3c2=O)N1 | > 100 µM | > 100 µM | – | > 100 µM | > 100 µM | – | > 100 µM | – | –
5 | CC1CC(C)C(C(O)CC2CC(=O)N(c3ccccc3)C(=O)C2)C(O)C1 (stereo not given) | > 100 µM | > 100 µM | > 100 µM | > 100 µM | > 100 µM | – | > 100 µM | – | –
6 | COc1cc(N(CCC#N)CCC#N)ccc1/C(N=Nc1ccc(C(=O)O)cc1)=N/NC(=O)c1cc(Br)ccc1O | – | – | – | – | – | – | – | > 150 µg/mL | GI50 (MDA-N): 108 µg/mL
7 | O=NN(CCCl)C(=O)NC1CCCCC1 | 39.2 µM and 98.6 µM and 86.2 µM | 65.1 µM and 124 µM and 170 µM | 96.9 µM and 144 µM and 350 µM | 81.5 µM and 123 µM and 163 µM | 32.8 µM and 111 µM and 76.6 µM | 36.4 µM and 128 µM and 114 µM | 38.8 µM and 112 µM and 183 µM | 134 µM | GI50 (DLD-1 colon): 18.4 µM and 42.2 µM; GI50 (DMS 114 small cell lung): 20.7 µM and 70.3 µM; GI50 (DMS 273 small cell lung): 28.2 µM and 76.7 µM; GI50 (KM20L2 colon): 34.3 µM and 163 µM; GI50 (LXFL 529 NSCLC): 17.3 µM; GI50 (M19-MEL melanoma): 27.4 µM and 60.2 µM; TGI (P388/ADR leukemia): 47.4 µM; GI50 (RXF-631 renal): 25 µM; TGI (RXF-631 renal): 132 µM; TGI (SN12K1 renal): 101 µM; GI50 (XF 498 CNS): 18 µM and 82 µM
8 | CN(C)c1ccc(N=C2C=CC(=C(C#N)C#N)c3ccccc32)cc1 | 16.1 µM | 12.6 µM | – | 5.8 µM | – | 1.65 µM | 0.666 µM | 0.441 µM | –
9 | c1ccc2c3c([nH]c2c1)C1C2CCCCN2C(c2ccncc2)N1CC3 (stereo not given) | – | > 100 µM | 67.1 µM | > 100 µM | > 100 µM | 98 µM | 83.5 µM | – | –
10 | O=C(CC1=Nc2nnc(-c3nnc4n3C(=O)C(CC(=O)C3CC3)=N4)n2C1=O)C1CC1 | > 100 µM | > 100 µM | > 100 µM | > 100 µM | > 100 µM | – | > 100 µM | – | –
11 | COC(=O)C1CCC(=O)N1/C(C)=N/NC(=O)Nc1ccc(Cl)c(Cl)c1 (stereo not given) | > 100 µM | > 100 µM | > 100 µM | > 100 µM | > 100 µM | > 100 µM | > 100 µM | – | –
12 | C=C(Cl)[C@@](Cl)(CBr)CC[C@@H](Br)C(C)(C)Cl | – | – | – | – | – | – | – | – | GI50 (MDA-N): 1.69 µM
13 | CCCCCCCCCCCCCCC(C)CCC(=O)O (stereo not given) | > 100 µM | – | – | > 100 µM | – | > 100 µM | – | – | –
14 | CN(C)c1ccc(C2CC(C)(O)Oc3cc4c(cc32)OCO4)cc1 (stereo not given) | – | – | – | – | – | – | – | > 100 µM | –
15 | Cc1nc2c(Br)cc(Br)cc2c(=O)n1-c1ccccc1NC1OCC(O)C(O)C1O (stereo not given) | – | – | – | – | – | – | – | > 100 µM | –
16 | CCCCC[C@@H](C/C=C/CCC(=O)NC/C(=C/Cl)[C@H]1C(=O)C(C)(C)C(=O)[C@@H](C)[C@@]1(C)O)OC | – | – | – | – | – | – | – | 36.1 µM | GI50 (MDA-N): 18.4 µM

Row | Compound | TGI (DLD-1 colon) | TGI (DMS 273 small cell lung) | TGI (KM20L2 colon) | TGI (M19-MEL melanoma) | TGI (LXFL 529 NSCLC) | TGI (XF 498 CNS) | TGI (DMS 114 small cell lung) | TGI (MDA-N) | other results
17 | Nc1nc(=S)c2[nH]cnc2[nH]1 | 202 µM | 39.1 µM | 67.4 µM | 205 µM | 233 µM | 8.35 µM | 36.3 µM | – | GI50 (MDA-N): 0.541 µM and 1.24 µM; TGI (P388/ADR leukemia): 12.9 µM; TGI (RXF-631 renal): 113 µM; TGI (SN12K1 renal): 11.2 µM
18 | CC(=O)[O-].[Mn+3].[O-]c1ccc(Cl)cc1C=NCCN=Cc1cc(Cl)ccc1[O-] | > 100 µM | > 100 µM | – | > 100 µM | > 100 µM | – | > 100 µM | – | GI50 (DLD-1 colon): 36.9 µM; GI50 (DMS 114 small cell lung): > 100 µM; GI50 (DMS 273 small cell lung): > 100 µM; GI50 (LXFL 529 NSCLC): > 100 µM; GI50 (M19-MEL melanoma): > 100 µM
19 | C[C@]12CCC3=NCCN3C1=CC[C@@H]1[C@@H]2CC[C@@]2(C)[C@H]1CC[C@]2(C)O | – | – | – | – | – | – | – | > 100 µM | –
20 | COc1ccc(C(=O)O/N=C2/CCCCC2CN(C)C)cc1 (stereo not given) | > 100 µM | > 100 µM | > 100 µM | > 100 µM | > 100 µM | – | – | – | TGI (RXF-631 renal): > 100 µM
21 | Cc1ccc(C2=C(Cl)C(=O)C(c3ccc(C)cc3)=C(Cl)C2=O)cc1 | – | – | – | – | – | – | – | > 100 µM | –
22 | COC(=O)c1sc(=NC(=S)N2CCCCC2)sc1C(=O)OC | > 100 µM | > 100 µM | > 100 µM | > 100 µM | > 100 µM | – | > 100 µM | – | TGI (RXF-631 renal): > 100 µM
23 | OCC(O)C(O)C(O)C(O)c1nn[nH]n1 (stereo not given) | > 100 µM | > 100 µM | – | > 100 µM | > 100 µM | > 100 µM | > 100 µM | – | –
24 | CN(C)c1ccc(O[Si](Oc2ccc(N(C)C)cc2)(Oc2ccc(N(C)C)cc2)Oc2ccc(N(C)C)cc2)cc1 | > 100 µM | – | > 100 µM | > 100 µM | > 100 µM | > 100 µM | > 100 µM | – | –
25 | O=C(/C=C(\[O-])c1ccccc1)CCCCCCC(=O)/C=C(\[O-])c1ccccc1.O=C(/C=C(\[O-])c1ccccc1)CCCCCCC(=O)/C=C(\[O-])c1ccccc1.O=C(/C=C(\[O-])c1ccccc1)CCCCCCC(=O)/C=C(\[O-])c1ccccc1.[Nd+3].[Nd+3] | – | – | > 50 µM | – | – | – | – | – | GI50 (KM20L2 colon): > 50 µM
26 | CC(=O)OCC1OC(n2c(=S)n(-c3ccccc3)c(=O)c3cc(Br)cc(Br)c32)C(OC(C)=O)C(OC(C)=O)C1OC(C)=O (stereo not given) | > 100 µM | > 100 µM | > 100 µM | > 100 µM | > 100 µM | 69.7 µM and > 100 µM | > 100 µM | – | GI50 (XF 498 CNS): 17.2 µM and 49.1 µM
27 | [Cl-].[Gd+3].[O-]/N=C(\c1ccccc1)c1ccccn1.[O-]/N=C(\c1ccccc1)c1ccccn1.[O-]/N=C(\c1ccccc1)c1ccccn1 | > 100 µM | > 100 µM | > 100 µM | > 100 µM | > 100 µM | – | > 100 µM | – | GI50 (DLD-1 colon): 39.9 µM; GI50 (DMS 114 small cell lung): 36.8 µM; GI50 (DMS 273 small cell lung): 43.8 µM; GI50 (KM20L2 colon): 39.7 µM; GI50 (LXFL 529 NSCLC): 50.1 µM; GI50 (M19-MEL melanoma): 52.7 µM
28 | COc1cc(CCc2ccc(OC(C)=O)cc2)cc(OC)c1OC | > 100 µM | > 100 µM | > 100 µM | > 100 µM | > 100 µM | – | > 100 µM | – | –
29 | CC1OC(OC2C(O[C@H]3CC[C@@]4(C)C(=CC[C@H]5[C@@H]6C[C@@H]7O[C@]8(CC[C@@H](C)CO8)[C@@H](C)[C@@H]7[C@@]6(C)CC[C@@H]54)C3)OC(CO)C(OC3OC(CO)C(O)C3O)C2O)C(O)C(O)C1O (stereo not given in full) | – | – | – | – | – | – | – | 1.46 µM and 2.34 µM | GI50 (MDA-N): 1.13 µM
30 | O=C(Oc1ccc2c(c1)CN(Cc1ccccc1)CO2)c1ccccc1 | – | – | – | – | – | – | – | 30.7 µM | –
31 | Nc1nc(=S)[nH]c(C(=O)Nc2nccs2)c1-c1ccccc1 | > 100 µM | > 100 µM | > 100 µM | > 100 µM | > 100 µM | > 100 µM | > 100 µM | – | –
32 | COc1ccc(-c2cc(-c3ccco3)c(C#N)c(=O)[nH]2)cc1 | > 100 µM | > 100 µM | > 100 µM | > 100 µM | > 100 µM | – | > 100 µM | – | TGI (RXF-631 renal): > 100 µM

Reference: PubChem BioAssay (NCI)
